{
  "source": "patent US20210345614A1",
  "about": "“APPLICATION OF 7-CARBOXYBENZO[1,2,3]THIADIAZOLE AMIDES AS PLANT STIMULANTS” (ADAM MICKIEWICZ UNIVERSITY FOUNDATION, priority 2015, published 2021)",
  "key": {"powdery mildew fungi": {"system": "powdery mildew fungi", "test": "BTHWA effect on the infectivity of fungi, growth in nutrition medium", "type": "cell-based", "conditions": "BTHWA 40 mg/L formulation, after 2 days", "description": "(§1) Purified tobacco mosaic virus (TMV) at a concentration of approx. 3 μg/ml was mixed with N-methyl-N-methoxy-7-carboxybenzo[1,2,3]thiadiazole amide (BTHWA) formulation (concentration 40 mg/L) in a 1:1 volume ratio and incubated for 30 min at room temperature (treated leaves). The control was TMV incubated in water. Both virus suspensions were used to mechanically infect tobacco leaves cv. xanthi. Local necrotic spots (hypersensitivity, local infection) produced on the tobacco leaves were measured.\nThe procedure as described in Example 1 was followed, however, a powdery mildew fungi was used, which was then incubated in a nutrition medium."}, "Pyrenophora teres": {"system": "Pyrenophora teres", "test": "Field test on barley, fungal infection by Pyrenophora teres", "type": "in vivo, Hordeum vulgare (spring)", "conditions": "Example 27: BTHWA 20 mg/L with Trend 90 EC, six foliar applications at 10 days intervals; harvested 13 days after last treatment", "description": "The test was conducted on a variety of barley Hordeum vulgare (spring). As such, six applications of the active substance solution was made. The study was conducted on fields of about 25 m^2 in quadruplicate for each combination tested. […] (with the addition of commercial adjuvant) followed by treatment with common fungicide (tebukonazole in formulation containing 250 g of active substance to be applied per 1 ha) in reducing infection of fungi Pyrenophora teres in barley (Hordeum vulgare (spring)) was performed. […] Six applications of the active substance BTHWA solution were made. As a control, one application of fungicide was performed at the time as indicated on the product label. The study was conducted on fields of about 25 m^2 in quadruplicate for each combination tested. […] The fungicide was applied in an amount of 33% its recommended dose (83 g/ha). Six applications of the active substance BTHWA solution were made. As a control, one application of fungicide was performed at the time as indicated on the product label. The study was conducted on fields of about 25 m^2 in quadruplicate for each combination tested."}, "[1]": {"system": "Pseudomonas syringe pv. tomato", "test": "BTHWA effect on the infectivity of bacteria, growth in Mueller-Hinton broth", "type": "cell-based", "conditions": "BTHWA 40 mg/L formulation, after 2 days", "description": "as §1\nThe procedure as described in Example 1 was followed, however, the bacterium Pseudomonas syringe pv. tomato was used. The suspensions formed were incubated in a Mueller-Hinton broth nutrition medium. After 2 days, the concentration of bacteria on the treated plates was compared to the control."}, "[2]": {"system": "tobacco mosaic virus (TMV)", "test": "TMV-tobacco cv. xanthi model, protection against biotic stress (necrotic spots)", "type": "in vivo, Nicotiana tabacum cv. xanthi", "conditions": "for Resistance induction [%] (Reduction of necrotic spots related to control): evaluated after another 4 days", "description": "Tobacco plants (Nicotiana tabacum) cv. xanthi at the stage of three developed leaves was watered (i.e. applied to the roots) twice with BTHWA solution of 10 mg/L, in one-week intervals. Control tobacco plants were irrigated with water only. […] To assess the biological effectiveness in protecting plants against biotic stress, the TMV-tobacco cv. xanthi model was used. This pathogen-plant model includes determining the hypersensitivity interaction phenomena with formation of necrotic spots which are quantifiable.\nTobacco plants (Nicotiana tabacum) cv. xanthi at the stage of three developed leaves were sprayed once with BION™ or BTHWA solutions at a concentration of 20 mg/L. A week later, the plants were mechanically infected with TMV virus by repeatedly rubbing the leaves with carborundum steeped in a suspension of the purified virus at the concentration of approx. 2 μg/ml. The level of protection against biotic stress was assessed by comparing the number of necrotic spots caused by TMV on the leaves of plants treated by BTHWA or BION™ and compared to the control (plant sprayed with water only).\nReduction of the amount of necrotic spots indicates protection against influence of the biotic factor on the plant.\nThe procedure as described in Example 4 was followed, however, the treated and control plants were divided into three batches and their leaves were inoculated with a virus, respectively after 1, 2, and 3 weeks past the last treatment with BTHWA or water only.\nAfter six days, plants treated with a solution of the working fluid at a BTHWA concentration <100 mg/L were inoculated with tobacco mosaic virus (TMV) in order to determine the degree of induction of resistance caused by the formulation. After another 4 days of infection by TMV, the level of infection was evaluated by determining the number and size of necrotic spot caused by viral disease oi the plant leaves relative to the control.\nResearch on the durability of the induced resistance effect on the model of tobacco plants against TMV virus was performed. […] The group of plants were then infected with the virus after 1, 3, 6, 10, 15, 20, 25 and 30 days (Table 3)."}, "Radish seeds": {"system": "Radish seeds", "test": "Germination of radish seeds", "type": "in vivo", "conditions": "seeds in 10 mg/L solution, after 2 days", "description": "Radish seeds were placed in water-containing solution of BTHWA at a concentration of 10 mg/L or water only (control samples)."}, "[3]": {"system": "Pseudomonas syringe pv. tomato", "test": "Protection of tobacco against bacterial infection of Pseudomonas syringe pv. tomato", "type": "in vivo, Nicotiana tabacum cv. xanthi", "description": "Tobacco plants at the 3 developed leaves stage were watered (applied at the roots) twice in weekly intervals with BTHWA solution at a concentration of 20 mg/L. Control tobacco plants were irrigated with water only. One week after the second treatment, a Pseudomonas syringe pv. tomato bacterial suspension, at a concentration of 10^5 CFU/cm^3 was transferred to the leaf by using an insulin syringe (without a needle). The bacterial suspension was prepared from two-day syringe pv. tomato culture on a solid medium. Protection against biotic stress was evaluated based on the amount of bacterial growth in the leaves at the point of introduction followed by the formation of necrotic spots, and this was compared with the control. […] The procedure as described in Example 12 was followed, however, the effectiveness of BTHWA in protecting plants against biotic stress was tested against the bacterial cell concentration raised to approx. 10^6 […]."}, "Rhynchosporium secalis": {"system": "Rhynchosporium secalis", "test": "Field test on barley, fungal infection by Rhynchosporium secalis", "type": "in vivo, Hordeum vulgare (spring)", "conditions": "Example 28: BTHWA 20 mg/L with Trend 90 EC, six foliar applications at 10 days intervals; harvested 13 days after last treatment", "description": "The test was on a variety of barley Hordeum vulgare (spring). There were six applications of the active substance solution. The study was conducted on fields of about 25 m^2 in quadruplicate for each combination tested."}, "[4]": {"conditions": "watered once with 100 ml of 20 mg/L"}},
  "note": "Where “and” joins values, the source holds several entries; their conditions need not be identical. Equal values may be shown once.",
  "data": [
    {"smiles": "CON(C)C(=O)c1cccc2nnsc12", "note": "[BTHWA, N-methyl-N-methoxy-7-carboxybenzo[1,2,3]thiadiazole amide]", "values": [
      {"measurement": "differences in fungal growth on the treated plates and control", "setting": "powdery mildew fungi", "value": "< 5", "unit": "%"},
      {"measurement": "% of infection", "setting": "Pyrenophora teres", "value": "17% and 17.50%"},
      {"measurement": "growth differences between the control medium and the treated medium", "setting": "[1]", "value": "< 5", "unit": "%"},
      {"measurement": "Resistance induction [%] (Reduction of necrotic spots related to control)", "setting": "[2]; spray 5 mg/L, TMV inoculation after six days", "value": 85, "unit": "%"},
      {"measurement": "Resistance induction [%] (Reduction of necrotic spots related to control)", "setting": "[2]; spray 10 mg/L, TMV inoculation after six days", "value": 97, "unit": "%"},
      {"measurement": "Resistance induction [%] (Reduction of necrotic spots related to control)", "setting": "[2]; spray 20 mg/L, TMV inoculation after six days", "value": 97, "unit": "%"},
      {"measurement": "Resistance induction [%] (Reduction of necrotic spots related to control)", "setting": "[2]; spray 50 mg/L, TMV inoculation after six days", "value": 98, "unit": "%"},
      {"measurement": "lowest possible concentration at which the efficiency is maintained at greater than 90%", "setting": "[2]; spray, TMV inoculation after six days", "value": 10, "unit": "mg/L"},
      {"measurement": "effectiveness in preventing biotic stress compared with BION", "setting": "[2]; sprayed once, 20 mg/L", "value": "more effective in preventing the occurrence of biotic stress"},
      {"measurement": "Average number of the local necrotic spots per leaf", "setting": "[2]; sprayed once, 20 mg/L, TMV infection a week later", "value": 0},
      {"measurement": "Reduction of necrotic spots [%]", "setting": "[2]; sprayed once, 20 mg/L, TMV infection a week later, vs control", "value": 100, "unit": "%"},
      {"measurement": "persistence of the resistance effect after a single application", "setting": "[2]; [4]", "value": "up to 25 days"},
      {"measurement": "time to activation of resistance after application", "setting": "[2]; [4]", "value": "after at least three days"},
      {"measurement": "% of induction (reduction of necrotic spots related to control)", "setting": "[2]; watered once with 100 ml of 20 mg/L, virus inoculation 1 day after application", "value": "<10", "unit": "%"},
      {"measurement": "% of induction (reduction of necrotic spots related to control)", "setting": "[2]; watered once with 100 ml of 20 mg/L, virus inoculation 3 days after application", "value": "10-20%"},
      {"measurement": "% of induction (reduction of necrotic spots related to control)", "setting": "[2]; watered once with 100 ml of 20 mg/L, virus inoculation 6 days after application", "value": 94, "unit": "%"},
      {"measurement": "% of induction (reduction of necrotic spots related to control)", "setting": "[2]; watered once with 100 ml of 20 mg/L, virus inoculation 10 days after application", "value": 96, "unit": "%"},
      {"measurement": "% of induction (reduction of necrotic spots related to control)", "setting": "[2]; watered once with 100 ml of 20 mg/L, virus inoculation 15 days after application", "value": 95, "unit": "%"},
      {"measurement": "% of induction (reduction of necrotic spots related to control)", "setting": "[2]; watered once with 100 ml of 20 mg/L, virus inoculation 20 days after application", "value": 95, "unit": "%"},
      {"measurement": "% of induction (reduction of necrotic spots related to control)", "setting": "[2]; watered once with 100 ml of 20 mg/L, virus inoculation 25 days after application", "value": 91, "unit": "%"},
      {"measurement": "% of induction (reduction of necrotic spots related to control)", "setting": "[2]; watered once with 100 ml of 20 mg/L, virus inoculation 30 days after application", "value": 85, "unit": "%"},
      {"measurement": "protection against biotic stress (number of necrotic spots vs control)", "setting": "[2]; watered twice with 10 mg/L at one-week intervals, TMV infection a week after second treatment", "value": "restricts the influence of biotic factor"},
      {"measurement": "durability of protection against TMV biotic stress", "setting": "[2]; watering 10 mg/L twice, inoculation 1, 2 and 3 weeks after last treatment", "value": "effective after three weeks"},
      {"measurement": "increase of the mass of the germ in comparison to control", "setting": "Radish seeds", "value": 5, "unit": "%"},
      {"measurement": "protection against the effects of bacterial infection", "setting": "[3]; 10 mg/L, applied by watering or spraying", "value": "completely protecting the treated plants from the effects of bacterial infection"},
      {"measurement": "protection against the effects of bacterial infection", "setting": "[3]; sprayed twice at weekly intervals, 20 mg/L", "value": "fully protects the plants against the effects of bacterial infection"},
      {"measurement": "bacterial infection and formation of necrotic spots", "setting": "[3]; watered twice at weekly intervals, 20 mg/L, bacteria 10^5 CFU/cm^3", "value": "these effects were not observed"},
      {"measurement": "local necrotic spots at elevated bacterial cell concentration", "setting": "[3]; watering as in Example 12, bacteria approx. 10^6 CFU/cm", "value": "no local necrotic spots were observed"},
      {"measurement": "% of infection", "setting": "Rhynchosporium secalis", "value": "10% and 10.63%"}
    ]}
  ]
}
